For this experiment, the system named is SARS-CoV-2 XBB 1.16 variant. The arrangement: species or system K18-hACE2 mice. Particulars: mouse; for Decrease of lung viral load (viral RNA copies) compared to the vehicle group: in vivo.

Read-outs that look alike come from different tables or passages of the source.

Regarding `O=C(NCc1ccccc1)C(=O)[C@H](C[C@@H]1CCCNC1=O)NC(=O)[C@H](CC1CCCCC1)NC(=O)c1cc2ccccc2o1` [14b, N-((S)-1-(((S)-4-(benzylamino)-3,4-dioxo-1-((S)-2-oxopiperidin-3-yl)butan-2-yl)amino)-3-cyclohexyl-1-oxopropan-2-yl)benzofuran-2-carboxamide], the “Effect against SARS-CoV-2 XBB 1.16 variant in vivo (in words)” value was “potent effect”.
`O=C(NCc1ccccc1)C(=O)[C@H](C[C@@H]1CCCNC1=O)NC(=O)[C@H](Cc1ccc(F)cc1)NC(=O)c1cc2ccccc2o1` [14a, N-((S)-1-(((S)-4-(benzylamino)-3,4-dioxo-1-((S)-2-oxopiperidin-3-yl)butan-2-yl)amino)-3-(4-fluorophenyl)-1-oxopropan-2-yl)benzofuran-2-carboxamide]: the “Effect against SARS-CoV-2 XBB 1.16 variant in vivo (in words)” value is given as “potent effect”. For the same compound, the “Decrease of lung viral load (viral RNA copies) compared to the vehicle group” value (10 mg/kg) is listed as 2.0 log10 units. In addition, the “Decrease of lung viral load (viral RNA copies) compared to the vehicle group” value (20 mg/kg) is reported as 2.6 log10 units.

For the origin of these results see article PMC10914734 (Signal Transduction and Targeted Therapy, 2024).
